Laboratory results published in patent publication US12427144B2, “Compounds and methods for the targeted degradation of androgen receptor” (Arvinas Operations, Inc., priority 2019, dated 2025).

Target: T1, Androgen Receptor (AR) (Homo sapiens, UniProt P10275)
T1 construct: endogenous in cells; host or cells: VCaP
T1 sequence (P10275 1-920): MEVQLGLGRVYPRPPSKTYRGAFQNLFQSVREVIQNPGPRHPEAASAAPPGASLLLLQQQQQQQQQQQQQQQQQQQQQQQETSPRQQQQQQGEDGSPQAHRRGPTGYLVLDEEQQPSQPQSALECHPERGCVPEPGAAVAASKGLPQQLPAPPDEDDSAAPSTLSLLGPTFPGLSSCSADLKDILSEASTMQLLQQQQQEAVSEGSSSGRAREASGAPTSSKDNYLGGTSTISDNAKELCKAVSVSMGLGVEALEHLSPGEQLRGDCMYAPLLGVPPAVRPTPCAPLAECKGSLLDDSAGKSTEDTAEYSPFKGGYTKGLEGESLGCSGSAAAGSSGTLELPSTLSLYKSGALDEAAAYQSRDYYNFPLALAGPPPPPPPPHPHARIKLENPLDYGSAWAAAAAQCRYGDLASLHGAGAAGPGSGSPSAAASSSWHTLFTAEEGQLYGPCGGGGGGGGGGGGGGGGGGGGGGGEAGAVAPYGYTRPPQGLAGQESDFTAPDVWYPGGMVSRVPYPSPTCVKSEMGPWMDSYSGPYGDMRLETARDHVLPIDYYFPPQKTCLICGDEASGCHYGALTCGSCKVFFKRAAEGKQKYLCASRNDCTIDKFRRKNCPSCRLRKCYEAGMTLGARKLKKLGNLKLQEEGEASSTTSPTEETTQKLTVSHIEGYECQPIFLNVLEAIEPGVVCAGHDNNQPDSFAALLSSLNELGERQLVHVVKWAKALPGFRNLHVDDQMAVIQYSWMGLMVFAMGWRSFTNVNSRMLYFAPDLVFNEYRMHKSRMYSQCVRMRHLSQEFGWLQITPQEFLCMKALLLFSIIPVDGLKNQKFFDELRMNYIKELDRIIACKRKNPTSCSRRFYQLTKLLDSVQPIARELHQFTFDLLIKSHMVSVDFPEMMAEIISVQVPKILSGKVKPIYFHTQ
Test: AR immunofluorescence staining, high content imager, VCaP cells
Assay type: cell-based
Details: for DC50: AR degradation by immunofluorescence; for Dmax: maximal AR degradation
Protocol: AR Immunofluorescence Staining of Cells for the High Content Imager was performed as follows: Following treatment of the cells with compound (using the central 60 wells of a 96-well plate), media was removed by aspiration, followed by addition of 50 μL per well of 4% paraformaldehyde (PFA) in PBS supplemented with 2 mM MgCl2 and 2 mM CaCl2. Fixed cells were incubated at RT for 15 minutes. For particularly low adherence cell lines (e.g., VCaP), a 2× solution of 8% PFA was added directly to wells instead. Cells were washed once with 200 μL PBS/well. To permeabilize cells 50 μL/well of 0.1% Triton X-100 in PBS was added and incubated for 5 minutes. Cells were washed once with 200 μL PBSS/well. 100 μL/well of Licor Odyssey Blocking Buffer was added for 1 hour at 20° C. Wells were aspirated and AR antibody (1:1000 in Licor Odyssey blocking buffer; 50 μL/well; CST 5153s) was added. Plates were incubated overnight at 4° C. Plates were washed 3 times with 200 EL PBS/well. The appropriate secondary antibody was added (50 μL/well; diluted in Licor Odyssey blocking buffer) and incubated for 1 hour at RT in the dark as prepared below using Anti-rabbit FITC (1:5000; […]) and Phalloidin-Alexafluor 648 (1:500; […]). Cells were washed once with 200 μL PBS/well. 50 μL DAPI or Hoechst 33342 diluted 1:1000 in Licor Odyssey blocking buffer was added to the wells. Cells were washed 3 times with 200 μL PBS/well. The plates were covered with a clear plastic sealer and refrigerated in the dark until ready to analyze. The cells were analyzed using a Molecular Devices IXM high content imager and analyzed using Molecular Devices metaXpress software suite.

| DC50 [nM] | Dmax [%] | SMILES |
| --- | --- | --- |
| < 1 | < 50 | Cc1cc(O[C@H]2C(C)(C)[C@H](NC(=O)c3ccc(N4CCC(CC5CCN(C67CC(C(=O)NC8CCC(=O)NC8=O)(C6)C7)CC5)CC4)cc3)C2(C)C)cc(C)c1C#N (mixture of isomers) [Compound 70, rac-N-(2,6-dioxopiperidin-3-yl)-3-(4-{[1-(4-{[(1r,3r)-3-(4-cyano-3,5-dimethylphenoxy)-2,2,4,4-tetramethylcyclobutyl]carbamoyl}phenyl)piperidin-4-yl]methyl}piperidin-1-yl)bicyclo[1.1.1]pentane-1-carboxamide] |
| < 1 | ≥ 70 | Cc1cc(O[C@H]2C(C)(C)[C@H](NC(=O)c3ccc(N4CCO[C@H](CN5CCN(c6ccc(C(=O)N[C@@H]7CCC(=O)NC7=O)c(F)c6)CC5)C4)cc3)C2(C)C)cc(C)c1C#N (single isomer, unassigned) [Compound 49] |
| < 1 | ≥ 70 | COc1cc(O[C@H]2C(C)(C)[C@H](NC(=O)c3ccc(N4CCC(CN5CCN(c6ccc(C(=O)NC7CCC(=O)NC7=O)c(F)c6)CC5)CC4)cc3)C2(C)C)ccc1C#N (stereo partly drawn) [Compound 1, 4-(4-((1-(4-(((1R,3R)-3-(4-cyano-3-methoxyphenoxy)-2,2,4,4-tetramethylcyclobutyl)carbamoyl)phenyl)piperidin-4-yl)methyl)piperazin-1-yl)-N-(2,6-dioxopiperidin-3-yl)-2-fluorobenzamide] |
| 1 to 10 | < 50 | COc1cc(O[C@H]2C(C)(C)[C@H](NC(=O)c3ccc(N4CCC(CN5CCN(c6ccc(C(=O)N[C@@H]7CCC(=O)NC7=O)c(F)c6)CC5)CC4)cc3)C2(C)C)ccc1C#N [Compound 14, 4-(4-((1-(4-(((1R,3R)-3-(4-cyano-3-methoxyphenoxy)-2,2,4,4-tetramethylcyclobutyl)carbamoyl)phenyl)piperidin-4-yl)methyl)piperazin-1-yl)-N—((R)-2,6-dioxopiperidin-3-yl)-2-fluorobenzamide] |
| < 1 | 50 to 70 | CC1(C)[C@H](NC(=O)c2ccc(N3CCC(CN4CCN(c5ccc(C(=O)NC6CCC(=O)NC6=O)c(F)c5)CC4)CC3)nn2)C(C)(C)[C@H]1Oc1ccc(C#N)c(Cl)c1 (stereo partly drawn) [Compound 17, N-((1R,3R)-3-(3-chloro-4-cyanophenoxy)-2,2,4,4-tetramethylcyclobutyl)-6-(4-((4-(4-((2,6-dioxopiperidin-3-yl)carbamoyl)-3-fluorophenyl)piperazin-1-yl)methyl)piperidin-1-yl)pyridazine-3-carboxamide] |
| 1 to 10 | 50 to 70 | CC1(C)[C@H](NC(=O)c2cnc(N3CCC(CN4CCN(c5ccc(C(=O)NC6CCC(=O)NC6=O)c(F)c5)CC4)CC3)cn2)C(C)(C)[C@H]1Oc1ccc(C#N)c(Cl)c1 (stereo partly drawn) [Compound 18, N-((1R,3R)-3-(3-chloro-4-cyanophenoxy)-2,2,4,4-tetramethylcyclobutyl)-5-(4-((4-(4-((2,6-dioxopiperidin-3-yl)carbamoyl)-3-fluorophenyl)piperazin-1-yl)methyl)piperidin-1-yl)pyrazine-2-carboxamide] |
| < 1 | ≥ 70 | CC1(C)[C@H](NC(=O)c2ccc(N3CCC(CN4CCN(c5ccc(C(=O)NC6CCC(=O)NC6=O)c(F)c5)CC4)CC3)cc2)C(C)(C)[C@H]1Oc1ccc(C#N)c(Cl)c1 (stereo partly drawn) [Compound 19, 4-(4-((1-(4-(((1R,3R)-3-(3-chloro-4-cyanophenoxy)-2,2,4,4-tetramethylcyclobutyl)carbamoyl)phenyl)piperidin-4-yl)methyl)piperazin-1-yl)-N-(2,6-dioxopiperidin-3-yl)-2-fluorobenzamide] |
| < 1 | ≥ 70 | Cc1cc(O[C@H]2C(C)(C)[C@H](NC(=O)c3ccc(N4CCC(CN5CCN(c6ccc(C(=O)NC7CCC(=O)NC7=O)c(F)c6)CC5)CC4)cc3)C2(C)C)cc(C)c1C#N (stereo partly drawn) [Compound 20, 4-(4-((1-(4-(((1R,3R)-3-(4-cyano-3,5-dimethylphenoxy)-2,2,4,4-tetramethylcyclobutyl)carbamoyl)phenyl)piperidin-4-yl)methyl)piperazin-1-yl)-N-(2,6-dioxopiperidin-3-yl)-2-fluorobenzamide] |
| < 1 | ≥ 70 | COc1cc(O[C@H]2C(C)(C)[C@H](NC(=O)c3ccc(N4CCC(CN5CCN(c6ccc(C(=O)N[C@H]7CCC(=O)NC7=O)c(F)c6)CC5)CC4)cc3)C2(C)C)ccc1C#N [Compound 21, 4-(4-((1-(4-(((1R,3R)-3-(4-cyano-3-methoxyphenoxy)-2,2,4,4-tetramethylcyclobutyl)carbamoyl)phenyl)piperidin-4-yl)methyl)piperazin-1-yl)-N—((S)-2,6-dioxopiperidin-3-yl)-2-fluorobenzamide] |
| < 1 | ≥ 70 | N#Cc1ccc(O[C@H]2CC[C@H](NC(=O)c3ccc(N4CCC(CN5CCN(c6ccc(C(=O)NC7CCC(=O)NC7=O)nc6)CC5)CC4)nn3)CC2)cc1Cl (stereo partly drawn) [Compound 22, N-((1R,4R)-4-(3-chloro-4-cyanophenoxy)cyclohexyl)-6-(4-((4-(6-((2,6-dioxopiperidin-3-yl)carbamoyl)pyridin-3-yl)piperazin-1-yl)methyl)piperidin-1-yl)pyridazine-3-carboxamide] |
| < 1 | ≥ 70 | N#Cc1ccc(O[C@H]2CC[C@H](NC(=O)c3ccc(N4CCC(CN5CCN(c6ccc(C(=O)NC7CCC(=O)NC7=O)cc6)CC5)CC4)nn3)CC2)cc1Cl (stereo partly drawn) [Compound 23, N-[4-(3-chloro-4-cyano-phenoxy)cyclohexyl]-6-[4-[[4-[4-[(2,6-dioxo-3-piperidyl)carbamoyl]phenyl]piperazin-1-yl]methyl]-1-piperidyl]pyridazine-3-carboxamide] |
| < 1 | ≥ 70 | CC(C)N(CC1CCN(c2cnc(C(=O)N[C@H]3CC[C@H](Oc4ccc(C#N)c(Cl)c4)CC3)cn2)CC1)[C@H]1C[C@H](Oc2ccc(C(=O)NC3CCC(=O)NC3=O)nc2)C1 (stereo partly drawn) [Compound 24, N-[4-(3-chloro-4-cyano-phenoxy)cyclohexyl]-5-[4-[[[3-[[6-[(2,6-dioxo-3-piperidyl)carbamoyl]-3-pyridyl]oxy]cyclobutyl]-isopropyl-amino]methyl]-1-piperidyl]pyrazine-2-carboxamide] |
| < 1 | 50 to 70 | CC(C)N(CC1CCN(c2cnc(C(=O)N[C@H]3CC[C@H](Oc4ccc(C#N)c(Cl)c4)CC3)cn2)CC1)[C@H]1C[C@H](Oc2ccc(C(=O)NC3CCC(=O)NC3=O)c(F)c2)C1 (stereo partly drawn) [Compound 25, N-((1R,4R)-4-(3-chloro-4-cyanophenoxy)cyclohexyl)-5-(4-((((1R,3R)-3-(4-((2,6-dioxopiperidin-3-yl)carbamoyl)-3-fluorophenoxy)cyclobutyl)(isopropyl)amino)methyl)piperidin-1-yl)pyrazine-2-carboxamide] |
| < 1 | ≥ 70 | N#Cc1ccc(O[C@H]2CC[C@H](NC(=O)c3ccc(N4CCC(CN5CCN(c6ccc(C(=O)NC7CCC(=O)NC7=O)c(F)c6)CC5)CC4)nn3)CC2)cc1Cl (stereo partly drawn) [Compound 26, N-((1R,4R)-4-(3-chloro-4-cyanophenoxy)cyclohexyl)-6-(4-((4-(4-((2,6-dioxopiperidin-3-yl)carbamoyl)-3-fluorophenyl)piperazin-1-yl)methyl)piperidin-1-yl)pyridazine-3-carboxamide] |
| < 1 | ≥ 70 | CC(C)N(CC1CCN(c2cnc(C(=O)N[C@H]3CC[C@H](Oc4ccc(C#N)c(Cl)c4)CC3)cn2)CC1)[C@H]1C[C@H](Oc2ccc(C(=O)NC3CCC(=O)NC3=O)cc2)C1 (stereo partly drawn) [Compound 27, N-[4-(3-chloro-4-cyano-phenoxy)cyclohexyl]-5-[4-[[[3-[4-[(2,6-dioxo-3-piperidyl)carbamoyl]phenoxy]cyclobutyl]-isopropyl-amino]methyl]-1-piperidyl]pyrazine-2-carboxamide] |
